Test results from patent publication US8846670B2, “1,2,3,4-tetrahydro-pyrimido(1,2-a)pyrimidin-6-one derivatives, preparation thereof, and pharmaceutical use thereof” (priority 2009, dated 2014).

Key:
Type in all cases: cell-based
[1] = test system: AKT protein phosphorylated on serine 473 (pAKT-S473) in PC3 human prostate carcinoma line; test: Study of pAKT expression in PC3 human prostate carcinoma cells measured by western blotting (Test A); conditions: PC-3, 1 to 2 hours incubation, approximate absolute IC50, mean of two experiments
Description: The inhibitory activity of the molecules on AKT phosphorylation is measured either by western blotting using the technique described below, or by the MSD Multi-spot Biomarker detection technique from Meso Scale Discovery also described below. […] Study of pAKT Expression in Pc3Human Prostate Carcinoma Cells Measured by Western Blotting (Test A): This test is based on measuring the expression of the AKT protein phosphorylated on […]. […] On day 2, the cells are incubated in the presence or absence of the test products for 1 to 2 hours at 37° C. in the presence of 5% CO2. The molecules, diluted in dimethyl sulphoxide (DMSO Sigma #D2650), are added from a 10-times concentrated stock solution, the final percentage of DMSO being 0.1%. […] After this incubation, the cells are lysed for the preparation of the proteins. […] The lysate is centrifuged for 10 min at 6000 rpm. 155 μl of supernatant are recovered. 150 μl are incubated for denaturation for 5 min at 95° C. in the presence of 4× NuPAGE LDS Sample Buffer diluted 4-fold (InVitrogen ref NP0007) and of 10× NuPAGE Sample Reducing Agent diluted 10-fold (InVitrogen ref NP0009). These samples are then frozen at -20° C. […] The gel is then transferred on to an Invitrolon PVDF membrane (Invitrogen #LC2007) permeabilised beforehand for a few seconds in ethanol (Ethanol Fischer Scientific #E/0600DF/15). The transfer is carried out in a Biorad tank at 30 volts overnight or at 60 volts for 3 hours, in the presence of 20× NUPAGE Transfer Buffer diluted 20-fold (InVitrogen ref NP0006). The membrane is then saturated in saturating solution composed of TBS (10× Tris Buffered Saline, Sigma #T5912, diluted 10-fold), 0.1% Tween 20 (Sigma #P5927) and 3% BSA (Bovine Serum Albumin Fraction V, Sigma #A4503) for 6 h after overnight transfer or else for 1 h after transfer for a period of 3 h. […] Two rinses for 5 min in washing solution composed of TBS and 0.1% Tween 20 are carried out before hybridisation of the secondary antibodies. The secondary antibodies are diluted to 1/10000th for the rabbit anti-Mouse IgG HRP antibody ([…] Promega) and to 1/10000th for the goat anti-Rabbit IgG HRP antibody ([…] Promega) in saturating solution, and then shaken for 1 h at ambient temperature. Two rinses for 30 min in washing solution are carried out and then a rinse for 5 min in H2O is carried out in order to eliminate the remaining Tween 20. […] The luminescence is read with the FujiFilm device (Ray Test). The FUJI device measures the total luminescence signal obtained (AU) for each band selected. It then subtracts the background noise (BG) proportional to the size of the band selected (Area), said background noise being calculated from a specific background noise band, with a view to obtaining the specific signal (AU-BG) for each band. The band obtained in the absence of product and in the presence of 0.1% DMSO is considered to be the 100% signal. The software calculates the % specific activity (Ratio) obtained for each band selected as a function of this 100% signal. The percentage inhibition is calculated for each concentration according to the formula (100%-Ratio). Two independent experiments make it possible to calculate the mean of the percentages of inhibition obtained at a given concentration for the products tested only at one concentration. […] Two independent experiments make it possible to calculate the mean of the IC50 values.

[2] = test system: translocation of the LC3 protein in Hela GFP-LC3 cells; test: Study of the translocation of the LC3 protein in Hela human cells, measured by image analysis cytometry (Test C, autophagy); conditions: Homo sapiens, HeLa, 2 h, Hela GFP-LC3 cells with LC3 granulations, EBSS + 10 μM hydroxychloroquine, absolute IC50
Description: The inhibitory activity of the molecules on autophagy is measured by the translocation of the LC3 protein from the cytoplasm to the autophagosomes. For this, Hela cells were transfected with a vector encoding the chimeric protein GFP-LC3. A Hela clone stably expressing the GFP-LC3 protein was selected.
Study of the Translocation of the LC3 Protein in Hela Human Cells, Measured by Image Analysis Cytometry (Test C):
On day 2, the cells are washed twice with EBSS (Sigma #E3024). The cells are then incubated in EBSS, 10 μM of hydroxychloroquine and test products for 2 h at 37° C. in the presence of 5% CO2. The molecules are diluted in dimethyl sulphoxide (DMSO Sigma #D2650), the final DMSO percentage being 0.1%.
After this incubation, the cells are fixed with 4% paraformaldehyde (Sigma #HT501128 4 L) for 10 min. […] The 96-well plates are then read with the iCyte image analysis cytometer (Compucyte).
Two independent experiments make it possible to calculate the mean of the IC50 values.

[3] = test system: P. falciparum (highly chloroquine-resistant strain Fcm29-Cameroon); test: Antimalarial activity test (radioactive micromethod of Desjardins); conditions: Plasmodium falciparum, Erythrocyte, infected human erythrocytes, 48 h, tritiated hypoxanthine incorporation
Description: Antimalarial Activity Test
The P. falciparum strains are cultured in solutions of RPM! […] For each assay, the parasites are incubated with selected concentrations of drugs for 48 h at 37° C. in a humid atmosphere and at 5% CO2. Artemisinin, artesunate and also chloroquine diphosphate are used as reference molecules. The first dilution of the drug is prepared at 1 mg/ml in dimethyl sulphoxide. The range of successive daughter solution dilutions is also prepared in dimethyl sulphoxide. […] These dilutions are then added to the parasites in culture in the microplates. […] The growth of the parasites is measured by incorporation of tritiated hypoxanthine (added 24 h after the beginning of the exposure to the drug) compared with the incorporation in the absence of drug.

[4] = test system: AKT protein phosphorylated on serine 473 (P-AKT-S473) in PC3 human prostate carcinoma line; test: Study of pAKT expression in PC3 human prostate carcinoma cells measured by the MSD Multi-spot Biomarker Detection technique (Test B); conditions: Homo sapiens, PC-3, P-AKT-S473 in PC3 cells, MSD sandwich immunoassay, 1 to 2 h incubation; absolute IC50, mean of 2 experiments
Description: The inhibitory activity of the molecules on AKT phosphorylation is measured either by western blotting using the technique described below, or by the MSD Multi-spot Biomarker detection technique from Meso Scale Discovery also described below.
Study of pAKT Expression in PC3Human Prostate Carcinoma Cells Measured by the MSD Multi-Spot Biomarker Detection Technique from Meso Scale Discovery (Test B):
The primary antibody specific for P-AKT-S473 (Kit #K151CAD) is coated onto an electrode in each well of the 96-well plates of the MSD kit: after the addition of a protein lysate to each well, the signal is visualised by adding a secondary detection antibody labelled with an electrochemiluminescent compound. The procedure followed is that described in the kit.
On day 2, the cells are incubated in the presence or absence of the test products for 1 to 2 h at 37° C. in the presence of 5% of CO2. The molecules, diluted in dimethyl sulphoxide (DMSO Sigma #D2650), are added from a 20-times concentrated stock solution, the final percentage of DMSO being 0.1%.
After this incubation, the cells are lysed for the preparation of the proteins. […] At this stage, the plates containing the lysates can be frozen at −20° C. or at −80° C.
The wells of the 96-well plates of the MSD kit are saturated for 1 h at ambient temperature with the blocking solution of the MSD kit. Four washes are carried out with 150 μl of Tris Wash Buffer of the MSD kit. The lysates previously prepared are transferred into the 96-well multi-spot plates of the MSD kit and incubated for 1 h at ambient temperature, with shaking. Four washes are carried out with 150 μl of Tris Wash Buffer of the MSD kit. 25 μl of the MSD sulfo-tag detection antibody solution are added to the wells and incubated for 1 h at ambient temperature, with shaking. Four washes are carried out with 150 μl of Tris Wash Buffer of the MSD kit. 150 μl of Read Buffer of the MSD kit are added to the wells and the plates are read immediately on the S12400 instrument from Meso Scale Discovery.
The instrument measures a signal for each well. Wells without cells and containing the lysis buffer serve to determine the background noise that will be subtracted from all the measurements (min). The wells containing cells in the absence of product and in the presence of 0.1% DMSO are considered to be the 100% signal (max). The percentage inhibition is calculated for each concentration of test product according to the following formula: (1−((test−min)/(max−min)))×100.
2 independent experiments make it possible to calculate the mean of the IC50 values.

COc1ccc(C(C)N2c3nc(N4CCOCC4)cc(=O)n3CC[C@H]2C(F)(F)F)cc1 (mixture of isomers) [Example 9, (8S)-9-[(1R and 1S)-1-(4-methoxyphenyl)ethyl]-2-(morpholin-4-yl)-8-(trifluoromethyl)-6,7,8,9-tetrahydro-4H-pyrimido[1,2-a]pyrimidn-4-one]
IC50 [1]: 0.676 µM

COc1ccc(CCN2c3nc(N4CCOCC4)cc(=O)n3CCC2C(F)(F)F)cc1 (racemic) [Example 2, (R,S)-9-[2-(4-methoxyphenyl)ethyl]-2-morpholin-4-yl-8-trifluoromethyl-6,7,8,9-tetrahydropyrimido[1,2-a]pyrimidin-4-one]
IC50 [1]: 0.315 µM | IC50 [2]: 0.016 µM

C[C@@H](c1ccccc1)N1c2nc(N3CCOCC3)cc(=O)n2CC[C@H]1C(F)(F)F (single isomer, unassigned) [Example 8, (8S)-2-(morpholin-4-yl)-9-[(1R or 1S)-1-phenylethyl]-8-(trifluoromethyl)-6,7,8,9-tetrahydro-4H-pyrimido[1,2-a]pyrimidin-4-one]
IC50 [1]: 0.075 µM | IC50 [2]: 0.462 µM

C[C@@H](c1ccc(Br)cc1)N1c2nc(N3CCOCC3)cc(=O)n2CC[C@H]1C(F)(F)F (single isomer, unassigned) [Example 10, (8S)-9-[R1R or 1S)-1-(4-bromophenyl)ethyl]-2-(morpholin-4-yl)-8-(trifluoromethyl)-6,7,8,9-tetrahydro-4H-pyrimido[1,2-a]pyrimidin-4-one]
IC50 [1]: 0.357 µM | IC50 [2]: 0.249 µM

C[C@H](c1cccc(F)c1)N1c2nc(N3CCOCC3)cc(=O)n2CC[C@H]1C(F)(F)F (single isomer, unassigned) [Example 16, (8S)-9-[(1R or 1S)-1-(3-fluorophenyl)ethyl]-2-(morpholin-4-yl)-8-(trifluoromethyl)-6,7,8,9-tetrahydro-4H-pyrimido[1,2-a]pyrimidin-4-one]
IC50 [1]: 0.041 µM | IC50 [2]: 0.187 µM

COc1ccc(CCN2c3nc(N4CCOCC4)cc(=O)n3CC[C@H]2C(F)(F)F)cc1 [Example 1, (S)-9-[2-(4-methoxyphenyl)ethyl]-2-morpholin-4-yl-8-trifluoromethyl-6,7,8,9-tetrahydropyrimido[1,2-a]pyrimidin-4-one]
IC50 [1]: 0.015 µM | IC50 [2]: 0.011 µM | inhibition at 0.1 µM [3]: 79% | inhibition at 1 µM [3]: 99%

O=c1cc(N2CCOCC2)nc2n1CC[C@@H](C(F)(F)F)N2CCc1ccccc1 [Example 3, (S)-2-morpholin-4-yl-9-phenethyl-8-trifluoromethyl-6,7,8,9-tetrahydropyrimido[1,2-a]pyrimidin-4-one]
IC50 [1]: 0.015 µM | IC50 [2]: 0.02 µM

O=c1cc(N2CCOCC2)nc2n1CC[C@@H](C(F)(F)F)N2Cc1ccccc1 [Example 4, (S)-9-benzyl-2-morpholin-4-yl-8-trifluoromethyl-6,7,8,9-tetrahydropyrimido[1,2-a]pyrimidin-4-one]
IC50 [1]: 0.265 µM | IC50 [2]: 0.569 µM | inhibition at 0.1 µM [3]: 19% | inhibition at 1 µM [3]: 97%

O=c1cc(N2CCOCC2)nc2n1CC[C@@H](C(F)(F)F)N2c1ccccc1 [Example 12, (8S)-2-(morpholin-4-yl)-9-phenyl-8-(trifluoromethyl)-6,7,8,9-tetrahydro-4H-pyrimido[1,2-a]pyrimidin-4-one]
IC50 [1]: 6.6 µM | IC50 [2]: 0.441 µM | inhibition at 1 µM [3]: 59%

O=c1cc(N2CCOCC2)nc2n1CC[C@@H](C(F)(F)F)N2c1ccccc1F [Example 15, (8S)-9-(2-fluorophenyl)-2-(morpholin-4-yl)-8-(trifluoromethyl)-6,7,8,9-tetrahydro-4H-pyrimido[1,2-a]pyrimidin-4-one]
IC50 [4]: 0.007 µM | IC50 [1]: 2.71 µM | IC50 [2]: > 1 µM

O=c1cc(N2CCOCC2)nc2n1CC[C@@H](C(F)(F)F)N2Cc1ccc(F)cc1 [Example 17, (8S)-9-(4-fluorobenzyl)-2-(morpholin-4-yl)-8-(trifluoromethyl)-6,7,8,9-tetrahydro-4H-pyrimido[1,2-a]pyrimidin-4-one]
IC50 [1]: 0.35 µM | IC50 [2]: 0.119 µM

O=C(c1ccccc1)N1c2nc(N3CCOCC3)cc(=O)n2CC[C@H]1C(F)(F)F [Example 18, (S)-9-Benzoyl-2-morpholin-4-yl-8-trifluoromethyl-6,7,8,9-tetrahydropyrimido[1,2-a]pyrimidin-4-one]
IC50 [1]: 0.335 µM | IC50 [2]: > 1 µM

O=c1cc(N2CCOCC2)nc2n1CC[C@@H](C(F)(F)F)N2c1ccncc1 [Example 20, (S)-2-morpholin-4-yl-9-pyridin-4-yl-8-trifluoromethyl-6,7,8,9-tetrahydropyrimido[1,2-a]pyrimidin-4-one]
IC50 [1]: 0.06 µM | IC50 [2]: > 1 µM
